What was measured:
[1] = biological target: T1, rat mGlu2 receptor (Rattus norvegicus, UniProt P31421); assay: [3H]-LY354740 binding on mGlu2 transfected CHO cell membranes; conditions: inhibition of 10 nM [3H]-LY354740 binding, membranes of CHO cells transfected with rat mGlu2, room temperature, 1 hour
T1 construct: expressed in transfected cells; membranes prepared
Source text: [^3H]-LY354740 Binding on mGlu2 Transfected CHO Cell Membranes. Transfection and Cell Culture
cDNA encoding the rat mGlu2 receptor protein in pBluescript II was subcloned into the eukaryotic expression vector pcDNA I-amp from Invitrogen Ltd (Paisley, UK). This vector construct (pcD1mGR2) was co-transfected with a psvNeo plasmid encoding the gene for neomycin resistance, into CHO cells by a modified calcium phosphate method described by Chen & Okayama (1988). The cells were maintained in Dulbecco's Modified Eagle medium with reduced L-glutamine (1 mM final concentration), 36 mg/L L-Proline and 10% dialysed foetal calf serum from Gibco-Invitrogen; the medium was supplemented with 500 microM α-methyl-4-carboxyphenylglycine (MCPG). Selection was made in the presence of G-418 (300 ug/ml final concentration). Clones were identified by reverse transcription of 5 μg total RNA, followed by PCR using mGlu2 receptor specific primers 5′-[…]-3′ and 5′-[…]-3′ in 60 mM Tris HCl (pH 10), 15 mM (NH4)2SO4, 2 mM MgCl2, 25 units/ml Taq Polymerase with 30 cycles annealing at 60° C. for 1 min., extention at 72° C. for 30 s, and 1 min. 95° C. denaturation.
Cells, cultured as above, were harvested and washed three times with cold PBS and frozen at −80° C. The pellet was resuspended in cold 20 mM HEPES-NaOH buffer containing 10 mM EDTA (pH 7.4), and homogenised with a polytron (Kinematica, A G, Littau, Switzerland) for 10 s at 10 000 rpm. After centrifugation for 30 min. at 4° C., the pellet was washed once with cold 20 mM HEPES-NaOH buffer containing 0.1 mM EDTA, (pH 7.4). After a second centrifugation for 30 min. at 4° C. the pellet was resuspended in cold 20 mM HEPES-NaOH buffer containing 0.1 mM EDTA, (pH 7.4). Protein content was measured using the Micro BCA method from Pierce-Perbio (Rockford, Ill., USA) using bovine serum albumin as standard.
After thawing, the membranes were resuspended in cold 50 mM Tris-HCl buffer containing 2 mM MgCl2 (pH 7.4) (binding buffer). The final concentration of the membranes in the assays was 25 μg protein/ml. Inhibition experiments were performed with membranes incubated with 10 nM [^3H]-LY354740 at room temperature, for 1 hour, in presence of various concentrations of the compound to be tested. Following the incubations, membranes were filtered onto Whatmann GF/B glass fiber filters or onto GF/B Unifilter plates and washed 5 times with cold binding buffer. Non specific binding was measured in the presence of 10 μM (2S,2′R,3′R)-2-(2′3′-Dicarboxycyclopropyl)glycine (DCG IV from Tocris, Ellisville, Mo. USA). After transfer of the filters into plastic vials containing 10 ml of Ultima-gold scintillation fluid from Perkin-Elmer (Boston, Mass., USA), the radioactivity was measured by liquid scintillation in a Tri-Carb 2500 TR counter (Packard, Zürich, Switzerland). For 96-Unifilter plates the radioactivity was measured after addition of Microscint 40 scintillation fluid (Perkin Elmer, Boston Mass.) using a TopCount NXT (Packard)
The inhibition curves were fitted with a four parameter logistic equation giving IC50 values, and Hill coefficients.

T1 sequence (P31421 19-872): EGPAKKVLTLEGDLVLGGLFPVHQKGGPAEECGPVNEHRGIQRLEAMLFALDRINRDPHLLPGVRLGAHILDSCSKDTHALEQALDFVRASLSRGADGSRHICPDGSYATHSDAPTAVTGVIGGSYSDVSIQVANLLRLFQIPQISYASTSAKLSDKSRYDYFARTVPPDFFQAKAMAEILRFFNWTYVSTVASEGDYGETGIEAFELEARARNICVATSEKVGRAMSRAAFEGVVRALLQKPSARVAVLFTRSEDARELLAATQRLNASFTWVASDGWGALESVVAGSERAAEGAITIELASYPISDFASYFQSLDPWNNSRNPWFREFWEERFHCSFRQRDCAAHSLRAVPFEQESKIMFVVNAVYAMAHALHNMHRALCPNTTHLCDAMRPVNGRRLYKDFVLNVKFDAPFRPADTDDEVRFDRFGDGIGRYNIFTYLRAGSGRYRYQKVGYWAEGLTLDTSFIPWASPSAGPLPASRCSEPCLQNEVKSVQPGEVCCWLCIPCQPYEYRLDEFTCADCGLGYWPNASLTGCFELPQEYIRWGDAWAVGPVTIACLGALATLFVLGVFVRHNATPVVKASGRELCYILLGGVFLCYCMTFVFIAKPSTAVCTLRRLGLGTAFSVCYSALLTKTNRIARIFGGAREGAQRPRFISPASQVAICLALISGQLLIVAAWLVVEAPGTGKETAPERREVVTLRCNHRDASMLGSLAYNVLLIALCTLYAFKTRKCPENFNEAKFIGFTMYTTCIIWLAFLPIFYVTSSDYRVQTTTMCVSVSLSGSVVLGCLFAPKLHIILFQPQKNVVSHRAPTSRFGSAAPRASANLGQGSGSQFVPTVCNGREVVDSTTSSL

melting point	Ki [1] [nM]	SMILES
250 °C	28	Nc1ncc(-c2cccc(-c3nc(-c4ccc(C(F)(F)F)c(OCC(F)(F)F)c4)cc(C(F)(F)F)n3)c2)cn1 [Example 138, 5-(3-{4-[3-(2,2,2-Trifluoro-ethoxy)-4-trifluoromethyl-phenyl]-6-trifluoromethyl-pyrimidin-2-yl}-phenyl)-pyrimidin-2-ylamine]
248 °C	49	FC(F)(F)c1ccc(-c2cc(C(F)(F)F)nc(-n3cnc(-c4ccncc4)n3)n2)cc1 [Example 148, 2-(3-Pyridin-4-yl-[1,2,4]triazol-1-yl)-4-trifluoromethyl-6-(4-trifluoromethyl-phenyl)-pyrimidine]
200 °C	8.4	CC(C)(C)NS(=O)(=O)c1cccc(-c2cccc(-c3nc(-c4ccc(C(F)(F)F)cc4)cc(C(F)(F)F)n3)c2)c1 [Example 155, 3′-[4-Trifluoromethyl-6-(4-trifluoromethyl-phenyl)-pyrimidin-2-yl]-biphenyl-3-sulfonic acid tert-butylamide]
281 °C	13.7	Nc1ncc(-c2cn(-c3nc(-c4cccc(Cl)c4)cc(C(F)(F)F)n3)cn2)cn1 [Example 187, 5-{1-[4-(3-Chloro-phenyl)-6-trifluoromethyl-pyrimidin-2-yl]-1H-imidazol-4-yl}-pyrimidin-2-ylamine]
233 °C	23	Cc1cc(-c2ccc(Cl)cc2)nc(-n2cnc(-c3cccc(S(C)(=O)=O)c3)c2)n1 [Example 210, 4-(4-Chloro-phenyl)-2-[4-(3-methanesulfonyl-phenyl)-imidazol-1-yl]-6-methyl-pyrimidine]
238.5 °C	3	CS(=O)(=O)c1cccc(-c2cc(-c3nc(-c4ccc(C(F)(F)F)cc4)cc(C(F)(F)F)n3)ccn2)c1 [Example 218, 2-[2-(3-Methanesulfonyl-phenyl)-pyridin-4-yl]-4-trifluoromethyl-6-(4-trifluoromethyl-phenyl)-pyrimidine]
174 °C	7	NS(=O)(=O)Nc1cccc(-c2cccc(-c3nc(-c4ccc(C(F)(F)F)cc4)cc(C(F)(F)F)n3)c2)c1 [Example 221, N-{3′-[4-Trifluoromethyl-6-(4-trifluoromethyl-phenyl)-pyrimidin-2-yl]-biphenyl-3-yl}-sulfamide]
113 °C	12.4	CN(C)S(=O)(=O)Nc1cccc(-c2cccc(-c3nc(-c4ccc(C(F)(F)F)cc4)cc(C(F)(F)F)n3)c2)c1 [Example 222, N-{3′-[4-Trifluoromethyl-6-(4-trifluoromethyl-phenyl)-pyrimidin-2-yl]-biphenyl-3-yl}-N′,N′-dimethyl-sulfamide]
191 °C	13	CS(=O)(=O)Nc1cccc(-c2cccc(-c3nc(-c4ccc(C(F)(F)F)cc4)cc(C(F)(F)F)n3)c2)c1 [Example 223, N-{3′-[4-Trifluoromethyl-6-(4-trifluoromethyl-phenyl)-pyrimidin-2-yl]-biphenyl-3-yl}-methanesulfonamide]
126 to 132 °C	34	Cc1cn(-c2cccc(-c3cc(-c4ccc(C(F)(F)F)cc4)cc(C)n3)c2)cn1 [Example 227, 2-Methyl-6-[3-(4-methyl-imidazol-1-yl)-phenyl]-4-(4-trifluoromethyl-phenyl)-pyridine]
277 °C	4	Cc1cc(-c2ccc(C(F)(F)F)cc2)cc(-c2nc(-c3cccc(S(N)(=O)=O)c3)no2)n1 [Example 237, 3-{5-[6-Methyl-4-(4-trifluoromethyl-phenyl)-pyridin-2-yl]-[1,2,4]oxadiazol-3-yl}-benzenesulfonamide]
140 °C	42	Cc1cc(-c2ccc(C(F)(F)F)cc2)cc(-c2cccc(C#N)c2)n1 [Example 242, 3-[6-Methyl-4-(4-trifluoromethyl-phenyl)-pyridin-2-yl]-benzonitrile]
211 °C	3	NS(=O)(=O)c1cccc(-c2noc(-c3cc(C(F)(F)F)cc(-c4ccc(C(F)(F)F)cc4)n3)n2)c1 [Example 243, 3-{5-[4-Trifluoromethyl-6-(4-trifluoromethyl-phenyl)-pyridin-2-yl]-[1,2,4]oxadiazol-3-yl}-benzenesulfonamide]
187 °C	5	NS(=O)(=O)c1cccc(-c2cccc(-c3cc(-c4ccc(C(F)(F)F)cc4)cc(C(F)(F)F)n3)c2)c1 [Example 244, 3′-[6-Trifluoromethyl-4-(4-trifluoromethyl-phenyl)-pyridin-2-yl]-biphenyl-3-sulfonic acid amide]
227 °C	41	Cc1cc(-c2ccc(Cl)c(Cl)c2)cc(-n2ccnc2)n1 [Example 247, 4-(3,4-Dichloro-phenyl)-2-imidazol-1-yl-6-methyl-pyridine]
99 °C (dec.)	9	Cc1cc(-c2ccc(Cl)c(Cl)c2)cc(-c2cccc(-c3ccc(N)nc3)c2)n1 [Example 249, 5-{3-[4-(3,4-Dichloro-phenyl)-6-methyl-pyridin-2-yl]-phenyl}-pyridin-2-ylamine]
227 °C	6	Cc1cc(-c2ccc(C(F)(F)F)cc2)cc(-c2cccc(-c3cc(S(N)(=O)=O)c(F)cc3F)c2)n1 [Example 270, 4,6-Difluoro-3′-[6-methyl-4-(4-trifluoromethyl-phenyl)-pyridin-2-yl]-biphenyl-3-sulfonic acid amide]
215 °C	3	Cc1cc(-c2ccc(C(F)(F)F)cc2)cc(-c2cccc(-c3ccc(S(N)(=O)=O)s3)c2)n1 [Example 271, 5-{3-[6-Methyl-4-(4-trifluoromethyl-phenyl)-pyridin-2-yl]-phenyl}-thiophene-2-sulfonic acid amide]
156 °C	80	Cc1cc(-c2ccc(C(F)(F)F)cc2)nc(-c2cccc(-c3ccc(S(=O)(=O)NC(C)(C)C)s3)c2)c1 [Example 272, 5-{3-[4-Methyl-6-(4-trifluoromethyl-phenyl)-pyridin-2-yl]-phenyl}-thiophene-2-sulfonic acid tert-butylamide]
200 °C	4	Cc1cc(-c2ccc(C(F)(F)F)cc2)nc(-c2cccc(-c3cccc(S(N)(=O)=O)c3)c2)c1 [Example 274, 3′-[4-Methyl-6-(4-trifluoromethyl-phenyl)-pyridin-2-yl]-biphenyl-3-sulfonic acid amide]
217 °C	87	Cc1cc(-c2ccc(C(F)(F)F)cc2)nc(-c2cccc(-c3cncc(S(N)(=O)=O)c3)c2)c1 [Example 275, 5-{3-[4-Methyl-6-(4-trifluoromethyl-phenyl)-pyridin-2-yl]-phenyl}-pyridine-3-sulfonic acid amide]
> 250 °C	28	Cc1nc(-c2cn(-c3cc(C(F)(F)F)cc(-c4ccc(C(F)(F)F)cc4)n3)cn2)sc1S(=O)(=O)NC(C)(C)C [Example 292, 4-Methyl-2-{1-[4-trifluoromethyl-6-(4-trifluoromethyl-phenyl)-pyridin-2-yl]-1H-imidazol-4-yl}-thiazole-5-sulfonic acid tert-butylamide]
187 °C (dec.)	13	Cc1nc(-c2cn(-c3cc(C(F)(F)F)cc(-c4ccc(C(F)(F)F)cc4)n3)cn2)sc1S(N)(=O)=O [Example 294, 4-Methyl-2-{1-[4-trifluoromethyl-6-(4-trifluoromethyl-phenyl)-pyridin-2-yl]-1H-imidazol-4-yl}-thiazole-5-sulfonic acid amide]
164 °C	38	Cc1cc(-c2ccc(C(F)(F)F)cc2)cc(-c2ccnc(-c3cccc([N+](=O)[O-])c3)c2)n1 [Example 306, 6-Methyl-2′-(3-nitro-phenyl)-4-(4-trifluoromethyl-phenyl)-[2,4′]bipyridinyl]

Source: patent US8183262B2, “Pyridine derivatives as mGluR2 antagonists” (Hoffmann-La Roche Inc., priority 2007, dated 2012)
